Data published in US6710048B2, “Pyrazine derivatives as modulators of tyrosine kinases” (Ortho-McNeil Pharmaceutical, Inc., priority 2000, dated 2004).
pIC50: −log10 of the molar value. Where two headings read alike, the source gives them in different places.

Target: T1, VEGF-R (vascular endothelial growth factor receptor-2) (Rattus norvegicus, UniProt O08775)
T1 construct: polyhistidine (6xHis) (N)
Assay: VEGF-R screening assay (33P FlashPlate kinase assay)
Format: biochemical
Protocol: A kinase reaction mixture was prepared containing 50 mM Tris-HCl pH=8, 10 mM MgCl2, 0.1 mM NAPO4, 1 mM DTT, 10 μM ATP, 0.025 μM biotinylated peptide substrate and 0.8 μCuries per well ^33P-γ-ATP [2000-3000 Ci/mmol]. 70 μl of the kinase reaction mixture was dispensed into the well of a streptavidin coated FlashPlate™ (Cat. # SMP103, NEN, Boston, Mass.). Then 1 μl of test compound stock in 100% DMSO was added to the wells resulting in a final concentration of 1% DMSO in the reaction with a 100 μl final reaction volume. Next, soluble rat tyrosine kinase containing an N-terminal 6×HIS tag was diluted in 50 mM Tris-HCl pH=8.0, 0.1% BSA at a concentration of 5 ng per microliter and 30 μl (150 ng enzyme per test well) was added to each well to initiate the reaction. The reaction was incubated for one hour at 30° C. At the end of the 1-hour incubation, the reaction was terminated by aspirating the reaction mixture from the plate and washing the wells twice with PBS containing 100 mM EDTA. The PLCI biotinylated peptide substrate becomes immobilized on the Flashplate™ and the incorporation of ^33P-γ-ATP was measured by reading the plate on a scintillation counter. Inhibition of the enzymatic activity of the VEGF-R was measured by observing a reduced amount of ^33P-γ-ATP incorporated into the immobilized peptide.
The term n.d. means not tested.
Assays to test compound inhibition of other kinases were preformed using methods that measure the amount of phosphorylation of a biotinylated peptide substrate. Biotinylated peptide substrates were selected from the literature as appropriate for the enzyme being evaluated. The general procedure used to assay for kinase activity is as follows: A kinase reaction mix was prepared in 50 mM Tris-HCl pH=8, 10 mM MgCl2, 0.1 mM NaVO4, 1 mM DTT, 5-10 μM ATP, 0.25-1 μM biotinylated peptide substrate, 0.2-0.8 μCuries per well ^33P-γ-ATP [2000-3000 Ci/mmol]. Assay conditions vary slightly for each protein kinase, for example, insulin receptor kinase requires 10 mM MnCl2 for activity and Calmodulin-dependent protein kinase requires calmodulin and 2 mM CaCl2. The reaction mixture was dispensed into the wells of a streptavidin coated Flashplate and 1 μl drug stock in 100% DMSO was added to a 100 μl reaction volume resulting in a final concentration of 1% DMSO in the reaction. Enzyme was diluted in 50 mM Tris-HCl pH=8.0, 0.1% BSA and added to each well. The reaction was incubated for one hour at 30° C. in the presence of compound. After one hour the reaction mix was aspirated from the plate and the plate was washed with PBS containing 100 mM EDTA. The plate was read on a scintillation counter to determine ^33P-γ-ATP incorporated into the immobilized peptide. Test compounds were assayed in duplicate at 8 concentrations [100 tM, 10 μM, 1 μM, 100 nM, 10 nM, 1 nM, 100 μM, 10 μM]. A maximum and minimum signal for the assay was determined on each plate. The IC50 was calculated from the dose response curve of the percent inhibition of the maximum signal in the assay according to the formula [max signal−background/test compound signal−background (100)=% inhibition] by graphing the percent inhibition against the log concentration of test compound. Known inhibitor compounds appropriate for the kinase being assayed were also included on each plate.
VEGF-R (vascular endothelial growth factor receptor-2) is a fusion protein containing a polyhistidine tag at the N-terminus followed by amino acids 786-1343 of the rat VEGF-R2 kinase domain (GenBank Accession #U93306). CDK1 (cyclin dependent kinase 1) is isolated from insect cells expressing both the human CDK1 catalytic subunit and its positive regulatory subunit cyclin B (New England Biolabs, Beverly, Mass., Cat. #6020). CDK4 (cyclin dependent kinase 4) contains amino acids 769 to 921 of the mouse […] protein found in the GST-retinoblastoma protein construct (Santa Cruz Biotechnology, Santa Cruz, Calif.; Cat. #SC-4112). […]

[1] = Table 4 kinase selectivity, read-out: IC50, Assay 1 VEGF-R
[2] = Tables 1-3, >10 or >100 = no 50% inhibition at highest dose tested, read-out: VEGF-R IC50

T1 sequence (O08775 786-1343): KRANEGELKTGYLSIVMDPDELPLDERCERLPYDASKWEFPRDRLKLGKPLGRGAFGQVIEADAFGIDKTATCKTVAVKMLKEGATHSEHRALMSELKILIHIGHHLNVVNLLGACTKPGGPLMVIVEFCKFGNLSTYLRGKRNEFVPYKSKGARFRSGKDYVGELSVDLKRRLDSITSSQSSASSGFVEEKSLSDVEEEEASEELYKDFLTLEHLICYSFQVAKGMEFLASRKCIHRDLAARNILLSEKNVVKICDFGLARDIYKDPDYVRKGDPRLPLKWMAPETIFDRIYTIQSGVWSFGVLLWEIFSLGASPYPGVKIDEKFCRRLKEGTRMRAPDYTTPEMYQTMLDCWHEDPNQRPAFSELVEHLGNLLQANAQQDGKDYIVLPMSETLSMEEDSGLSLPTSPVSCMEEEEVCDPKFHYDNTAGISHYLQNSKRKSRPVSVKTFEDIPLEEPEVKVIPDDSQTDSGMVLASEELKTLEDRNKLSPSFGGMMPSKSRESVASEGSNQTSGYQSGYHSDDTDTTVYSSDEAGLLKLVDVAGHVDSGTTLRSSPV

pIC50 [1]	pIC50 [2]	Compound
7.38	7.10	OCCCNc1cncc(-c2cncc(Nc3cccc(Cl)c3)n2)c1 [Cmd 4]
7.23	7.22	OCCCCNc1cncc(-c2cncc(Nc3cccc(Cl)c3)n2)c1 [Cmd 32]
7.15	7.15	CN(C)CCNc1cncc(-c2cncc(Nc3cccc(Cl)c3)n2)c1 [Cmd 33, N′-[5-[6-[(3-chlorophenyl)amino]pyrazinyl]-3-pyridinyl]-N^2,N^2-dimethyl-1,2-ethanediamine]
7.28	7.28	Clc1cccc(Nc2cncc(-c3cncc(NCCCc4ccncc4)c3)n2)c1 [Cmd 71]
7.05	7.05	Clc1cccc(Nc2cncc(-c3cncc(NCCCc4cccnc4)c3)n2)c1 [Cmd 72]
6.98	6.98	Clc1cccc(Nc2cncc(-c3cncc(NCCCN4CCCCC4)c3)n2)c1 [Cmd 73]
7.10	7.10	Clc1cccc(Nc2cncc(-c3cncc(NCCCn4cccn4)c3)n2)c1 [Cmd 75]
7.28	7.28	Clc1cccc(Nc2cncc(-c3cncc(NCCCn4cncn4)c3)n2)c1 [Cmd 76]

Compound	pIC50 [1]	pIC50 [2]
CN(C)CCCNc1cncc(-c2cncc(Nc3cccc(Cl)c3)n2)c1 [Cmd 35]	7.03	7.05
O=C(NCCCO)c1cncc(-c2cncc(Nc3cccc(Cl)c3)n2)c1 [Cmd 39]	5.60	5.60
